# Legend:
# Type in all cases: in vivo
# [1] = test system: Housefly [Musca domestica]; experiment: Housefly contact mortality in dishes (HF), 48 hours; details: μg of test compound per 25 female flies
# Summary of the method: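 Residual contact test: acetone dilution, 0.01% peanut oil spreader, solvent evaporated; 25 ♀ flies (1-2 d old) per cage; sugar-water plug; 48 h mortality read. LC50 in μg/25 female flies, from dose-mortality curves; top dose 100 μg/25 flies.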
# [2] = test system: Black Bean Aphid [Aphis fabae (Scop.)]; experiment: Black bean aphid spray test on nasturtium (BBA), 48 hours; details: percent of test compound in sprayed solution
# Procedure: The compounds in Tables 1 and 2 above were tested for insecticidal activity using the following testing procedures. LC50 values, based on the results of these tests and calculated according to dosage-mortality curves, are expressed in Table 3.
# Black Bean Aphid [Aphis fabae (Scop.)]:
# Nasturtium plants (Tropaeolum sp.) approximately 5 cm tall, were transplanted into sandy loam soil in small cups and infested with 25-50 black bean aphids of mixed ages. Twenty-four hours later they were sprayed to the point of runoff with 50-50 acetone-water solutions of the test compounds. Treated plants were held in the greenhouse and mortality was recorded after 48 hours. Test concentrations ranged from 0.05% downward. The LC-50 value is expressed below in Table 3 under the heading "BBA" in terms of percent of the test compound in the sprayed solution.
# [3] = test system: Tobacco Budworm [Heliothis virescens (Fabricius)] eggs; experiment: Tobacco budworm eggs (TBW-E); details: percent in solution; 2-day old eggs
# Summary of the method: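 Paper-towel patches of 2-day-old eggs dipped in acetone solutions of compound (0.1% downward), held on larval rearing medium at 78° F. Mortality scored once all control eggs had hatched and larvae were feeding; LC50 from dosage-mortality curves, expressed as percent compound in solution.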
# [4] = test system: Cabbage Looper [Trichoplusia ni (Hubner)]; experiment: Cabbage looper leaf dip (CL), 3-5 days; details: percent in solution, second-instar larvae
# Summary of the method: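 Squash cotyledons dipped 2-3 s in compound in 50-50 acetone-water, dried, then infested with 5 second-instar larvae and held at high humidity. Mortality scored after 3-5 days at concentrations from 0.1% downward. LC50 from dosage-mortality curves, expressed as percent compound in solution.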
SMILES,LC50 HF [1] [µg],LC50 BBA [2] [%],LC50 TBW E (eggs) [3] [%],LC50 CL [4] [%]
CCC(C)C(=Nc1ccc(Cl)c(Cl)c1)OCc1cccc(Oc2ccc(F)cc2)c1 (centres unmarked) [Compound 211],61,0.01,> 0.1,0.0017
CC(C)C(=Nc1cccc(Br)c1)OCc1cccc(Oc2ccc(F)cc2)c1 [Compound 229],20,0.006,> 0.1,0.0005
CC(C)C(=Nc1ccc(C#N)cc1)OCc1cccc(Oc2cccc(Cl)c2)c1 [Compound 208],27,0.05,> 0.1,0.0035
CC(C)C(=Nc1ccc(Cl)cc1)OCc1cccc(Oc2ccc(Br)cc2)c1 [Compound 237],50,0.01,0.075,0.0006
CC(C)CC(=Nc1ccc(C(C)C)cc1)OCc1cccc(Oc2ccc(F)cc2)c1 [Compound 329],7,> 0.05,> 0.1,0.033
Cc1ccc(N=C(OCc2cccc(Oc3ccccc3)c2)C(C)C)cc1C [Compound 158],9,0.0015,0.1,0.003
Cc1ccc(N=C(OCc2cccc(Oc3ccccc3)c2)C(C)C)c(Cl)c1 [Compound 94],44,0.001,0.075,0.0045
CC(C)C(=Nc1ccc(F)c(Cl)c1)OCc1cccc(Oc2cc(F)cc(F)c2)c1 [Compound 215],75,0.05,> 0.1,0.00075
COc1cc(N=C(OCc2cccc(Oc3ccccc3)c2)C(C)C)cc(OC)c1OC [Compound 248],40,> 0.05,> 0.1,0.02
CCOc1ccc(N=C(OCc2cccc(Oc3ccccc3)c2)C(C)(C)C)cc1 [Compound 164],> 100,> 0.05,> 0.1,0.005
Fc1c(F)c(F)c(COC(=Nc2cccc(Cl)c2Cl)C(Cl)Cl)c(F)c1F [Compound 454],> 100,> 0.05,> 0.1,0.03
CC(C)C(=Nc1cccc(Cl)c1)OCc1cccc(Oc2ccc(Br)cc2)c1 [Compound 260],22,0.006,> 0.1,0.00075
COc1ccc(N=C(OCc2cccc(Oc3ccccc3)c2)C(C)C)cc1OC [Compound 169],10,0.003,> 0.1,0.009
CCCCc1ccc(N=C(OCc2cccc(Oc3ccccc3)c2)C(C)C)cc1 [Compound 152],> 100,0.01,> 0.1,0.009
CC(C)C(=Nc1ccc(C(C)(C)C)cc1)OCc1cccc(Oc2ccc(F)cc2)c1 [Compound 235],> 100,0.01,> 0.1,0.004
CC(C)(C)C(=Nc1ccc(Br)c(Cl)c1)OCc1cccc(Oc2ccccc2)c1 [Compound 106],> 100,0.01,> 0.1,0.014
CC(C)(C)C(=Nc1cccc(Cl)c1)OCc1cccc(Oc2ccccc2)c1 [Compound 12],> 100,> 0.05,> 0.1,0.008
CC(C)(C)C(=Nc1ccc(Cl)c([N+](=O)[O-])c1)OCc1cccc(Oc2ccccc2)c1 [Compound 105],> 100,0.05,> 0.1,0.018
CC(C)(C)C(=Nc1ccc(F)cc1)OCc1cccc(Oc2ccccc2)c1 [Compound 48],> 100,> 0.05,> 0.05,0.03
Cc1cc(N=C(OCc2cccc(Oc3ccccc3)c2)C(C)C)ccc1F [Compound 87],5,0.001,0.03,0.004
Cc1ccc(Cl)c(N=C(OCc2cccc(Oc3ccccc3)c2)C(C)C)c1 [Compound 93],64,0.003,> 0.1,0.005
COc1ccc(N=C(OCc2cccc(Oc3ccccc3)c2)C(C)C)c(C)c1 [Compound 149],17,0.001,0.05,0.007
CC(C)C(=Nc1cc(C(F)(F)F)ccc1F)OCc1cccc(Oc2ccccc2)c1 [Compound 84],93,0.03,0.1,0.006
CC(C)C(=Nc1ccc(Cl)c(Cl)c1)OCc1cccc(Oc2ccc(F)cc2F)c1 [Compound 213],> 100,0.01,> 0.1,0.00075
CC(C)C(=Nc1ccc(F)c(Cl)c1)OC(C)c1cccc(Oc2ccccc2)n1 (centres unmarked) [Compound 498],49,> 0.05,> 0.1,0.002
CC(C)C(=Nc1ccc(F)cc1)OCc1cccc(Oc2ccc(F)cc2F)c1 [Compound 206],50,0.03,> 0.1,0.0017

# From patent US5045566A, “Novel imidate insecticides” (ICI Americas Inc., priority 1989, dated 1991)
